The supplement of paper PMC4121296

Assays:
Settings in all cases: exposure: 5-72 hpf
[1] = test system: Danio rerio embryo (fli1:egfp); experiment: heart rate at 72 hpf (beats per minute); higher = faster heart rate
Procedure: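 fli1:egfp zebrafish embryos exposed 5-72 hpf to chemical (0.05-50 µM, 0.1% DMSO) in 384-well plates; heart rate at 72 hpf quantified from stream acquisitions by semi-automated MetaXpress journal (peak counting); only embryos in concentrations passing survival/body-length criteria analyzed.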

[2] = test system: Danio rerio embryo (fli1:egfp); experiment: pericardial area at 72 hpf (image area units (not stated)); higher = larger pericardial area (edema)
Procedure: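 fli1:egfp zebrafish embryos exposed 5-72 hpf to chemical (0.05-50 µM, 0.1% DMSO); pericardial area at 72 hpf measured by semi-automated MetaXpress journal (increase indicates edema).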

[3] = test system: Danio rerio embryo (fli1:egfp); experiment: body length at 72 hpf (µm); higher = longer body (less growth inhibition)
Procedure: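 Transgenic fli1:egfp zebrafish embryos (one per well, 384-well plate) exposed statically from 5 to 72 hpf at 28 °C to chemical (0.05-50 µM, 0.1% DMSO); at 72 hpf anesthetized and imaged on ImageXpress; body length of live, hatched, correctly oriented embryos measured by automated MetaXpress journal. Dead/unhatched/misoriented embryos have no value.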

[4] = test system: Danio rerio embryo (fli1:egfp); experiment: intersegmental vessel area normalized to body length at 72 hpf (ISV area / body length (normalized units)); higher = more vessel area
Procedure: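 fli1:egfp zebrafish embryos exposed 5-72 hpf to chemical (0.05-50 µM, 0.1% DMSO); intersegmental vessel (ISV) eGFP area quantified by MetaXpress journal at 72 hpf and normalized to body length.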

[5] = test system: Danio rerio embryo (fli1:egfp); experiment: arterial (dorsal aorta) circulation score at 72 hpf (normalized DA-Max (arbitrary units)); higher = more circulation
Procedure: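 fli1:egfp zebrafish embryos exposed 5-72 hpf to chemical (0.05-50 µM, 0.1% DMSO); arterial circulation at 72 hpf quantified from stream acquisitions of the dorsal aorta by FFT-based analysis (DA-Max, normalized dorsal aorta signal); only concentrations passing survival/body-length criteria analyzed.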

C#CCN1C(=O)COc2cc(F)c(N3C(=O)C4=C(CCCC4)C3=O)cc21 [Flumioxazin]
Settings | arterial, [5] | body length at 72 hpf, [3] | heart rate at 72 hpf, [1] | intersegmental vessel area normalized, [4] | pericardial area at 72 hpf, [2]
0.05 µM | 6.76 | 3020 | 175 | 73.7 | 17000
0.098 µM | 5.49 | 2970 | 169 | 74.8 | 17800
0.195 µM | 5.79 | 3020 | 160 | 82.8 | 18200
0.39 µM | 4.85 | 2920 | 155 | 68.9 | 19000
0.78 µM | 5.18 | 3030 | 156 | 68.8 | 23000
1.56 µM | 4.72 | 2960 | 164 | 74.8 | 18100
3.125 µM | 4.39 | 3000 | 182 | 74 | 18700
6.25 µM | 4.22 | 3000 | 169 | 69.6 | 19200
12.5 µM | 4.91 | 2990 | 182 | 75.9 | 19300
25 µM | 4.04 | 2920 | 166 | 86.4 | 17700
50 µM | 6.16 | 2920 | 166 | 79 | 21100

CO/N=C(/C1=NOCCO1)c1ccccc1Oc1ncnc(Oc2ccccc2Cl)c1F [Fluoxastrobin]
Settings | arterial, [5] | body length at 72 hpf, [3] | heart rate at 72 hpf, [1] | intersegmental vessel area normalized, [4] | pericardial area at 72 hpf, [2]
0.0061 µM | 13.7 | 2970 | 182 | 70.3 | 12700
0.0122 µM | 15 | 2930 | 189 | 71.6 | 14000
0.0244 µM | 11.9 | 2900 | 188 | 76 | 13500
0.05 µM | 15.2 | 2970 | 194 | 79.4 | 14300
0.098 µM | 12.6 | 2980 | 198 | 82.8 | 14900
0.195 µM | 16.2 | 2990 | 198 | 75.3 | 14200
0.39 µM | 13.1 | 2970 | 194 | 77.9 | 15000
0.78 µM | 13.9 | 2940 | 191 | 67.2 | 13900
1.56 µM | 12.1 | 2910 | 177 | 80.3 | 17100
3.125 µM | 6.76 | 3010 | 161 | 64.8 | 28800

COC(=O)N(C(=O)N1CO[C@@]2(C(=O)OC)Cc3cc(Cl)ccc3C2=N1)c1ccc(OC(F)(F)F)cc1 [Indoxacarb]
Settings | arterial, [5] | body length at 72 hpf, [3] | heart rate at 72 hpf, [1] | intersegmental vessel area normalized, [4] | pericardial area at 72 hpf, [2]
0.05 µM | 9.56 | 2980 | 169 | 81.5 | 14200
0.098 µM | 10.3 | 3010 | 171 | 81.7 | 13400
0.195 µM | 10.5 | 2970 | 176 | 85.7 | 15600
0.39 µM | 8.96 | 2950 | 183 | 80.7 | 13200
0.78 µM | 8.19 | 2990 | 185 | 80.1 | 14100
1.56 µM | 10.8 | 2960 | 181 | 85.1 | 12300
3.125 µM | 9.26 | 3010 | 194 | 83.8 | 12700
6.25 µM | 10.5 | 3020 | 188 | 87.7 | 13000
12.5 µM | 14.1 | 2900 | 181 | 70.6 | 14200

CCOC(=O)C(C)OC(=O)c1cc(Oc2ccc(C(F)(F)F)cc2Cl)ccc1[N+](=O)[O-] (stereo unspecified) [Lactofen]
Settings | arterial, [5] | body length at 72 hpf, [3] | heart rate at 72 hpf, [1] | intersegmental vessel area normalized, [4] | pericardial area at 72 hpf, [2]
0.05 µM | 8.21 | 3000 | 189 | 84.8 | 13400
0.098 µM | 7.39 | 3000 | 187 | 87.9 | 17300
0.195 µM | 8.26 | 2990 | 191 | 81.5 | 15800
0.39 µM | 8.42 | 2940 | 188 | 83.3 | 15800
0.78 µM | 5.92 | 2950 | 191 | 82.4 | 19300
1.56 µM | 6.43 | 2980 | 193 | 85.2 | 19800
3.125 µM | 5.46 | 2960 | 190 | 88 | 21500
6.25 µM | 4.85 | 2910 | 188 | 92.9 | 21200
12.5 µM | 4.13 | 2910 | 187 | 99.7 | 23900

CC(C)Oc1cc(-n2nc(C(C)(C)C)oc2=O)c(Cl)cc1Cl [Oxadiazon]
Settings | arterial, [5] | body length at 72 hpf, [3] | heart rate at 72 hpf, [1] | intersegmental vessel area normalized, [4] | pericardial area at 72 hpf, [2]
0.05 µM | 14.6 | 3090 | 179 | 85.1 | 14800
0.098 µM | 14 | 3060 | 184 | 88.1 | 13700
0.195 µM | 13.8 | 3090 | 190 | 90.3 | 15400
0.39 µM | 14.5 | 3060 | 186 | 82.3 | 15400
0.78 µM | 13.1 | 3040 | 182 | 82.4 | 16500
1.56 µM | 15.4 | 2950 | 183 | 83.4 | 14900
3.125 µM | 13.2 | 3060 | 188 | 85.6 | 15800
6.25 µM | 14.1 | 3120 | 190 | 90.4 | 16000
12.5 µM | 11.5 | 3000 | 181 | 94.5 | 17300
25 µM | 9.56 | 2960 | 155 | 90.2 | 16800

CCOc1cc(Oc2ccc(C(F)(F)F)cc2Cl)ccc1[N+](=O)[O-] [Oxyfluorfen]
Settings | arterial, [5] | body length at 72 hpf, [3] | heart rate at 72 hpf, [1] | intersegmental vessel area normalized, [4] | pericardial area at 72 hpf, [2]
0.0244 µM | 12.2 | 3050 | 183 | 86.8 | 14300
0.05 µM | 15 | 3020 | 178 | 86.7 | 14500
0.098 µM | 13.5 | 2990 | 180 | 88.8 | 14900
0.195 µM | 15.8 | 2990 | 187 | 79 | 14500
0.39 µM | 14.3 | 2990 | 185 | 95.7 | 15500
0.78 µM | 13.4 | 3000 | 192 | 90.7 | 13400
1.56 µM | 14.4 | 2850 | 190 | 89.4 | 13400
3.125 µM | 12 | 2980 | 193 | 87.2 | 16200
6.25 µM | 10.5 | 2960 | 194 | 100 | 15900
12.5 µM | 7.87 | 2840 | 192 | 90.5 | 15300
25 µM | – | 2660 | – | – | –

CCOC(=O)COc1cc(-c2nn(C)c(OC(F)F)c2Cl)c(F)cc1Cl [Pyraflufen-ethyl]
Settings | arterial, [5] | body length at 72 hpf, [3] | heart rate at 72 hpf, [1] | intersegmental vessel area normalized, [4] | pericardial area at 72 hpf, [2]
0.05 µM | 10.9 | 3030 | 171 | 83.6 | 15700
0.098 µM | 8.57 | 3020 | 174 | 92.3 | 15400
0.195 µM | 10.5 | 3020 | 174 | 84.6 | 15300
0.39 µM | 9.67 | 3040 | 167 | 86.7 | 17100
0.78 µM | 10.2 | 2950 | 169 | 81.6 | 16800
1.56 µM | 7.3 | 2980 | 169 | 85.2 | 20600
3.125 µM | 4.92 | 2960 | 160 | 86.2 | 20000
6.25 µM | 3.84 | 2890 | 163 | 86 | 25300
25 µM | 3.2 | 2790 | 148 | 96.9 | 25400

C=C(C)[C@H]1Cc2c(ccc3c2O[C@@H]2COc4cc(OC)c(OC)cc4[C@@H]2C3=O)O1 [Rotenone]
0.05 µM
Settings | arterial | body length at 72 hpf | heart rate at 72 hpf | intersegmental vessel area normalized | pericardial area at 72 hpf
[1] | – | – | 141 | – | –
[2] | – | – | – | – | 18800
[3] | – | 3020 | – | – | –
[4] | – | – | – | 85.6 | –
[5] | 8.64 | – | – | – | –

Cc1nn(-c2cc(NS(C)(=O)=O)c(Cl)cc2Cl)c(=O)n1C(F)F [Sulfentrazone]
Settings | arterial, [5] | body length at 72 hpf, [3] | heart rate at 72 hpf, [1] | intersegmental vessel area normalized, [4] | pericardial area at 72 hpf, [2]
0.05 µM | 11.4 | 3000 | 156 | 77.2 | 17900
0.098 µM | 11.7 | 2990 | 158 | 76.8 | 16100
0.195 µM | 12.6 | 2990 | 158 | 71.2 | 16300
0.39 µM | 9.83 | 2970 | 157 | 72.4 | 15600
0.78 µM | 11.3 | 2920 | 161 | 78.9 | 16100
1.56 µM | 8.91 | 2930 | 163 | 72.4 | 18600
3.125 µM | 8.71 | 2970 | 162 | 71.4 | 17200
6.25 µM | 8.86 | 3030 | 167 | 69.7 | 20400
12.5 µM | 7.1 | 3020 | 170 | 74.8 | 18700
25 µM | 11.1 | 2970 | 169 | 71.2 | 21700
50 µM | 5.34 | 2950 | 173 | 71.2 | 21200

CCc1nn(C)c(C(=O)NCc2ccc(C(C)(C)C)cc2)c1Cl [Tebufenpyrad]
Settings | arterial, [5] | body length at 72 hpf, [3] | heart rate at 72 hpf, [1] | intersegmental vessel area normalized, [4] | pericardial area at 72 hpf, [2]
0.05 µM | 9.08 | 2980 | 155 | 75.7 | 13400
0.098 µM | 10.5 | 2960 | 166 | 75.9 | 13600
0.195 µM | 10.6 | 2960 | 160 | 78.8 | 13000
0.39 µM | 11.6 | 2990 | 166 | 76.5 | 14800
0.78 µM | 14.2 | 2950 | 174 | 77 | 16300

CN(C)C(=S)SSC(=S)N(C)C [Thiram]
Settings | arterial, [5] | body length at 72 hpf, [3] | heart rate at 72 hpf, [1] | intersegmental vessel area normalized, [4] | pericardial area at 72 hpf, [2]
95 pM | 9.22 | 3070 | 180 | 95.8 | 11600
0.00019 µM | 11.1 | 3010 | 187 | 101 | 11600
0.00038 µM | 9.48 | 3060 | 179 | 97.6 | 12500
0.00076 µM | 10.3 | 3020 | 192 | 98.6 | 11500
0.0015 µM | 11 | 3050 | 191 | 95.6 | 11200
0.003 µM | 9.4 | 3070 | 196 | 99.4 | 12900
0.0061 µM | 8.74 | 3050 | 196 | 110 | 14600
0.0122 µM | 9.58 | 3070 | 189 | 99.1 | 12000
0.0244 µM | 11.3 | 3080 | 179 | 97.9 | 12400
